{"source": "paper PMC5424463", "about": "“A strategy based on nucleotide specificity leads to a subfamily-selective and cell-active inhibitor of N ^6-methyladenosine demethylase FTO” (Chemical Science, 2014)", "key": {"ALKBH2": {"target": "T1, ALKBH2 (Homo sapiens, UniProt Q6NS38)", "T1 construct": "made in house; host or cells: E. coli BL21 (DE3)", "T1 sequence (Q6NS38 56-258)": "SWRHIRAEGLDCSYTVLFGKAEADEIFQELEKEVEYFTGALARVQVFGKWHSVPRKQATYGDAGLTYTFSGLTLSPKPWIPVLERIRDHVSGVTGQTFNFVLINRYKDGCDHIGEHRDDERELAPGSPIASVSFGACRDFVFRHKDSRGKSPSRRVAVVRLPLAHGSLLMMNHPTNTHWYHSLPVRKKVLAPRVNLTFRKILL", "assay": "Differential scanning fluorimetry (DSF)-based binding assay, ALKBH2", "settings": "DSF, 100 μM compound, 2 μM protein, 50 μM MnCl2; for ΔTm at 100 µM: read-out: Tm shift (ALKBH2)", "description": "(§1) Superdex-200 column (GE Healthcare) pre-equilibrated with 20 mM HEPES, pH 7.5, 300 mM NaCl, 10% (v/v) glycerol, 0.5 mM TCEP. […]\n(§2) Differential scanning fluorimetry (DSF)-based binding assay\n(§3) DSF-based binding assay was performed using a MiniOpticon™ Real-Time PCR Detection System (Bio-Rad), monitoring protein unfolding using SYPRO orange (Invitrogen) according to the reported method.[16] FAM (492 nm) and ROX (610 nm) filters were used for excitation and emission respectively. Reaction mixes contained 2 μM protein, 50 μM MnCl2, 100 μM compounds, 5x SYPRO orange in a final volume of 50 μl. Reagents were prepared in 50mM HEPES buffer, pH 7.5 except metals, which were dissolved as 100 mM stocks in 20 mM HCl, then further diluted in MilliQ water. Compounds tested were prepared in 100% DMSO and added such that the final concentration of DMSO was not more than 1% v/v of assay […]\n(§4) mix. Fluorescence readings were taken every 1°C in the range 25-95°C, with the temperature increased linearly by 1°C min -1. The software provided was used to perform global minimum subtraction. The inflection point, representing Tm, was calculated by fitting the Boltzmann equation to the sigmoidal curves obtained; data were processed using GraphPad Prism 6.0™.\n(§5) The Tm shift caused by the addition of small molecules/ fragments was determined by subtraction of the “reference” Tm (protein incubated with metal and 1% v/v DMSO) from the Tm obtained in the presence of the compound. The assay was performed in triplicate for each inhibitor, with standard deviations typically < 1°C. […]"}, "ALKBH5": {"target": "T2, ALKBH5 (Homo sapiens, UniProt Q6P6C2)", "T2 construct": "pNIC28-Bsa4 ALKBH5 (encompassing residues 66-292); made in house; host or cells: E. coli BL21 (DE3) Rosetta T1R", "T2 sequence (Q6P6C2 66-292)": "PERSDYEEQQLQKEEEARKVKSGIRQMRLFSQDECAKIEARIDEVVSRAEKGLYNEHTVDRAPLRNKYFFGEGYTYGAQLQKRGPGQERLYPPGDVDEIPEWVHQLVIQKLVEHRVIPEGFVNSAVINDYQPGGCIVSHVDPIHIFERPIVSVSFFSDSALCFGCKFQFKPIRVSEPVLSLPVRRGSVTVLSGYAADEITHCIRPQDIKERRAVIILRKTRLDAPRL", "assay": "Differential scanning fluorimetry (DSF)-based binding assay, ALKBH5", "settings": "100 μM compound, 2 μM protein; for ΔTm at 100 µM: 50 μM MnCl2, read-out: Tm shift (ALKBH5); for Tm shift (ALKBH5): 50 μM MnCl2", "description": "as §1, §2\n(§6) DSF-based binding assay was performed using a MiniOpticon™ Real-Time PCR Detection System (Bio-Rad), monitoring protein unfolding using SYPRO orange (Invitrogen) according […]\n(§7) to the reported method.[16] […]\n(§8) and emission respectively. Reaction mixes contained 2 μM protein, 50 μM MnCl2, 100 μM […]\n(§9) Reagents were prepared in 50mM\n(§10) HEPES buffer, pH 7.5 except metals, which were dissolved as 100 mM stocks in 20 mM HCl, then further diluted in MilliQ water. Compounds tested were prepared in 100% DMSO and added such that the final concentration of DMSO was not more than 1% v/v of assay […]\n(§11) increased linearly by 1°C min -1. The software provided was used to perform global minimum subtraction. The inflection point, representing Tm, was calculated by fitting the Boltzmann equation to the sigmoidal curves obtained; data were processed using GraphPad Prism 6.0™.\n(§12) The Tm shift caused by the addition of small molecules/ fragments was determined by subtraction of the “reference” Tm (protein incubated with metal and 1% v/v DMSO) from the Tm obtained in the presence of the compound. […]"}, "FTO [1]": {"target": "T3, FTO (Homo sapiens, UniProt Q9C0B1)", "T3 construct": "The human full length FTO construct used in this study; made in house; host or cells: E. coli BL21 (DE3) Rosetta T1R", "T3 sequence (Q9C0B1 whole entry)": "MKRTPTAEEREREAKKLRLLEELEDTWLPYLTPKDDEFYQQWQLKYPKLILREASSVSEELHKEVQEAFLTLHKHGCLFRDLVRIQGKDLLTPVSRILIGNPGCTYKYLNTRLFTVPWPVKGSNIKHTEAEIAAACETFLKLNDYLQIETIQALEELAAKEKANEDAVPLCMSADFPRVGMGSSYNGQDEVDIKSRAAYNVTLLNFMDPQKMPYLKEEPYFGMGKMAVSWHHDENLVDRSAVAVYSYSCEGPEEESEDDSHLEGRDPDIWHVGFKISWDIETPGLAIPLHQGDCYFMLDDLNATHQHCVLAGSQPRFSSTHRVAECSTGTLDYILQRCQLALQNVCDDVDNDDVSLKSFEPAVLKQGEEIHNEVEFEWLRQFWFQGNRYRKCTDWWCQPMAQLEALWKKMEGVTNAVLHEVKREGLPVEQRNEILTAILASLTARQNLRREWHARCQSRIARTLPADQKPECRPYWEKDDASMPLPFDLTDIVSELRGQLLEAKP", "assay": "Differential scanning fluorimetry (DSF)-based binding assay, FTO", "settings": "100 μM compound, 2 μM protein; for ΔTm at 100 µM: 50 μM MnCl2, read-out: Tm shift (FTO); for Tm shift (FTO): 50 μM MnCl2", "description": "as §1, §2, §6, §7, §8, §9, §10, §11, §12"}, "ALKBH3": {"target": "T4, ALKBH3 (Homo sapiens, UniProt Q96Q83)", "T4 construct": "Human ALKBH3 (encompassing residues 1- 286); purchased ProSpec-Tany Technogene Ltd, Israel", "T4 sequence (Q96Q83 1-286)": "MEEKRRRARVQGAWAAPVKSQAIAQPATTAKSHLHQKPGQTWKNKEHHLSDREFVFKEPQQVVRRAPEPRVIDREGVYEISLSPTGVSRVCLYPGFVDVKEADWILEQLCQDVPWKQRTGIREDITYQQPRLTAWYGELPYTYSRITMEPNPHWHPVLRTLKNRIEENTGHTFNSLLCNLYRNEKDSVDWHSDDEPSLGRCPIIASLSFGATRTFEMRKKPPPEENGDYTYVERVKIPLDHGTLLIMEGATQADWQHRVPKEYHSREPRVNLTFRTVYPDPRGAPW", "assay": "Differential scanning fluorimetry (DSF)-based binding assay, ALKBH3", "settings": "DSF, 100 μM compound, 2 μM protein, 50 μM MnCl2; for ΔTm at 100 µM: read-out: Tm shift (ALKBH3)", "description": "as §1, §2, §3, §4, §5"}, "AlkB": {"target": "T5, AlkB (Escherichia coli, UniProt P05050)", "T5 construct": "made in house; host or cells: E. coli BL21 (DE3) Rosetta T1R", "T5 sequence (P05050 12-216)": "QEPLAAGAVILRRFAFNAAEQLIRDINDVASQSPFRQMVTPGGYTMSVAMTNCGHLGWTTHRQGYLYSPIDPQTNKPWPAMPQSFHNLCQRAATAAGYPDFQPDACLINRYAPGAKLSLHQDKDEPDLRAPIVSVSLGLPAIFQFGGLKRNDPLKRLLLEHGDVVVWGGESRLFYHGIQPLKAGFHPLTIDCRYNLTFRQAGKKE", "assay": "Differential scanning fluorimetry (DSF)-based binding assay, AlkB", "settings": "100 μM compound, 2 μM protein; for ΔTm at 100 µM: 50 μM MnCl2, read-out: Tm shift (AlkB); for Tm shift (AlkB): 50 μM MnCl2", "description": "as §1, §2, §3, §4, §5"}, "FTO [2]": {"target": "T3, FTO", "assay": "HPLC-based inhibition assay for FTO, m3T substrate", "type": "biochemical", "description": "HPLC-based inhibition assays for FTO\nThe assay was modified from previously reported method.[17] It is performed in triplicate for each inhibitor, in a final reaction volume of 25 µL. Reaction consisted of FTO (1 µM), 2OG (50 µM), (NH4)2Fe(SO4)2·6H2O (50 µM), L-ascorbate (2 mM), 3-methylthymidine (m3T substrate, 10 µM) in 50 mM HEPES buffer, pH 7.5, and inhibitor at various concentrations (final DMSO concentration not more than 1% v/v of assay mix). The reaction was incubated at 4°C for 1 h, before analysis on a HPLC system. The substrate (m3T) and the demethylated product (thymidine) were separated using a Zorbax C18 column (4.6 mm x 250 mm) with a […]\nflow rate of 1 mL/min at room temperature.\nThe percentage inhibition was estimated based on the peak areas of the 3-methylthymidine substrate and the thymidine product. For IC50 determination, eight different concentrations of […]\nthe variation in percentage demethylation at different inhibitor concentrations, using nonlinear regression, with normalized dose-response fit on GraphPad Prism 6.0™.\nHPLC-based assay for FTO was also performed using an m6A-ssRNA as substrate. The assay was modified from previously reported method.[21] All reaction conditions are as described for the inhibition of m3T demethylation above, except that a 15-mer ssRNA with the sequence 5’-CUUGUCA(m6A)CAGCAGA-3’ (Yale University, W.M. Keck Foundation Biotechnology Resource Laboratory) was used as substrate (10 µM). The reaction was analysed on a bio-inert HPLC system. The m6A-ssRNA substrate and the corresponding demethylated product were separated using a Dionex DNAPac PA200 anion-exchange"}, "[3]": {"settings": "HPLC-based demethylase assay, m3T substrate, read-out: IC50 (FTO)"}}, "note": "Where a name gives a salt, the structure may show the parent alone. Read-outs that look alike come from different tables or passages of the source.", "data": [{"compound": "CNc1ncnc2c1ncn2[C@@H]1O[C@H](CO)[C@@H](O)[C@H]1O", "note": "[m6A, N ^6-methyladenosine]", "values": [{"measurement": "ΔTm at 100 µM", "setting": "ALKBH2", "result": 1.3, "unit": "°C"}, {"measurement": "ΔTm at 100 µM", "setting": "ALKBH5", "result": 9.8, "unit": "°C"}, {"measurement": "ΔTm at 100 µM", "setting": "FTO [1]", "result": 2.4, "unit": "°C"}, {"measurement": "ΔTm at 100 µM", "setting": "ALKBH3", "result": 2.1, "unit": "°C"}, {"measurement": "ΔTm at 100 µM", "setting": "AlkB", "result": 2.6, "unit": "°C"}]}, {"compound": "Cc1cn([C@H]2C[C@H](O)[C@@H](CO)O2)c(=O)n(C)c1=O", "note": "[m3T, N ^3-methylthymidine]", "values": [{"measurement": "ΔTm at 100 µM", "setting": "ALKBH2", "result": 1.1, "unit": "°C"}, {"measurement": "ΔTm at 100 µM", "setting": "ALKBH5", "result": 1.1, "unit": "°C"}, {"measurement": "ΔTm at 100 µM", "setting": "FTO [1]", "result": 12.1, "unit": "°C"}, {"measurement": "ΔTm at 100 µM", "setting": "ALKBH3", "result": 1.3, "unit": "°C"}, {"measurement": "ΔTm at 100 µM", "setting": "AlkB", "result": 1.4, "unit": "°C"}]}, {"compound": "ATTGTGG(A)CUGCAGC: unmethylated counterpart of the 15-mer m6A ssRNA", "values": [{"measurement": "Tm shift (ALKBH2)", "setting": "ALKBH2", "result": 1.2, "unit": "°C"}, {"measurement": "Tm shift (ALKBH5)", "setting": "ALKBH5", "result": 3.6, "unit": "°C"}, {"measurement": "Tm shift (FTO)", "setting": "FTO [1]", "result": 3.4, "unit": "°C"}, {"measurement": "Tm shift (ALKBH3)", "setting": "ALKBH3", "result": 3.5, "unit": "°C"}, {"measurement": "Tm shift (AlkB)", "setting": "AlkB", "result": 2.4, "unit": "°C"}]}, {"compound": "NNC(=O)/C=C/C(=O)O", "note": "[Compound 2, fumarate hydrazide]", "values": [{"measurement": "IC50", "setting": "FTO [2]; [3]", "result": "> 100", "unit": "µM"}]}, {"compound": "ATTGTGG(m3T)CTGCAGC: 15-mer m3T-containing ssDNA", "values": [{"measurement": "Tm shift (ALKBH2)", "setting": "ALKBH2", "result": 1.5, "unit": "°C"}, {"measurement": "Tm shift (ALKBH5)", "setting": "ALKBH5", "result": 2.6, "unit": "°C"}, {"measurement": "Tm shift (FTO)", "setting": "FTO [1]", "result": 3.0, "unit": "°C"}, {"measurement": "Tm shift (ALKBH3)", "setting": "ALKBH3", "result": 2.9, "unit": "°C"}, {"measurement": "Tm shift (AlkB)", "setting": "AlkB", "result": 3.1, "unit": "°C"}]}, {"compound": "ATTGTGG(T)CTGCAGC: unmethylated counterpart of the 15-mer m3T ssDNA", "values": [{"measurement": "Tm shift (ALKBH2)", "setting": "ALKBH2", "result": 1.3, "unit": "°C"}, {"measurement": "Tm shift (ALKBH5)", "setting": "ALKBH5", "result": 3.4, "unit": "°C"}, {"measurement": "Tm shift (FTO)", "setting": "FTO [1]", "result": 3.2, "unit": "°C"}, {"measurement": "Tm shift (ALKBH3)", "setting": "ALKBH3", "result": 2.4, "unit": "°C"}, {"measurement": "Tm shift (AlkB)", "setting": "AlkB", "result": 2.7, "unit": "°C"}]}, {"compound": "O=C(O)/C=C/C(=O)NNC(=O)c1cnc2ccccc2c1", "note": "[Compound 8]", "values": [{"measurement": "IC50 (FTO)", "setting": "FTO [2]; HPLC-based demethylase assay, m3T substrate", "result": "low micromolar range"}]}, {"compound": "NNC(=O)CCC(=O)O", "note": "[Compound 1, succinate hydrazide]", "values": [{"measurement": "IC50", "setting": "FTO [2]; [3]", "result": "> 100", "unit": "µM"}]}, {"compound": "CN(C)NC(=O)CCC(=O)O", "note": "[daminozide, reference compound]", "values": [{"measurement": "IC50", "setting": "FTO [2]", "result": "> 100", "unit": "µM"}]}, {"compound": "NNC(=O)/C=C\\C(=O)O", "note": "[Compound 3, maleate hydrazide]", "values": [{"measurement": "IC50", "setting": "FTO [2]; [3]", "result": "> 100", "unit": "µM"}]}, {"compound": "ATTGTGG(m6A)CUGCAGC: 15-mer m6A-containing ssRNA", "values": [{"measurement": "Tm shift (ALKBH2)", "setting": "ALKBH2", "result": 1.0, "unit": "°C"}, {"measurement": "Tm shift (ALKBH5)", "setting": "ALKBH5", "result": 3.5, "unit": "°C"}, {"measurement": "Tm shift (FTO)", "setting": "FTO [1]", "result": 3.0, "unit": "°C"}, {"measurement": "Tm shift (ALKBH3)", "setting": "ALKBH3", "result": 3.0, "unit": "°C"}, {"measurement": "Tm shift (AlkB)", "setting": "AlkB", "result": 2.7, "unit": "°C"}]}]}
